Data taken from patent publication US11415579B2, “Assay for measuring a rate of reaction between a target and a ligand candidate” (Imperial College Innovations Ltd., priority 2016, dated 2022).

Legend:
Cdk2(T182C) (C177A) = biological target: T1, Cdk2(T182C) (C177A) (Homo sapiens, UniProt P24941, C177A/T182C); test: Kinetic thiol consumption assay with Cdk2 mutant T182C; assay type: binding; design: key to Rate enhancement, Cdk2 T182C: rate constant with Cdk2 ÷ rate constant with model thiol (fold); conditions: additional mutation C177A; for Rate constant with Cdk2 T182C: Protein: Cdk2, cysteine position T182C, in h^-1
T1 construct: poly-histidine; made in house; host or cells: E. coli
Summary of the method: (§1)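 Thiol consumption was monitored kinetically using 5 μM Cdk2 (C177A plus one introduced cysteine) in degassed phosphate buffer at pH 8 with TCEP beads. Plates were kept 1 h at room temperature before fluorescence reading, and rate constants came from exponential decay fitting.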

[1] = Kinetic thiol consumption assay with model thiol glutathione; assay type: physicochemical; design: Rate constant with glutathione (k(GSH)): unit not given here; conditions: for Rate constant with glutathione (k(GSH)): 500 μM ligand, 5 μM thiol, phosphate buffer pH 8; for Rate constant with Glutathione: Protein: Glutathione, cysteine position NA, in h-1
Summary of the method: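 Rate constants for acrylamide reaction with 5 μM glutathione come from first-order exponential fits of normalized fluorescence decay (ex 380, em 470 nm). Reactions run in degassed phosphate buffer at pH 8 containing TCEP beads, room temperature.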

Cdk2(N272C) (C177A) = biological target: T2, Cdk2(N272C) (C177A) (Homo sapiens, UniProt P24941, C177A/N272C); test: Kinetic thiol consumption assay with Cdk2 mutant N272C; assay type: binding; design: key to Rate enhancement, Cdk2 N272: rate constant with Cdk2 ÷ rate constant with model thiol (fold); conditions: for Rate enhancement, Cdk2 N272: Cdk2 N272, additional mutation C177A; for Rate constant with Cdk2 N272C: Protein: Cdk2, cysteine position N272C, additional mutation C177A, in h^-1
T2 construct: poly-histidine; made in house; host or cells: E. coli
Summary of the method: as §1

[2] = biological target: T3, human cyclin-dependent kinase 2 (Cdk2) (Homo sapiens, UniProt P24941); test: Kinetic thiol consumption assay with wild type Cdk2 (C177); assay type: binding; design: key to Rate enhancement, Cdk2 WT: k(Cdk2) divided by k(model thiol); Rate constant with Cdk2 (k(Cdk2)): unit not given here; conditions: for Rate constant with Cdk2 (k(Cdk2)): 500 μM ligand, 5 μM thiol, phosphate buffer pH 8; for Rate enhancement, Cdk2 WT: no additional mutations; for Rate constant with Cdk2 WT: Protein: Cdk2, cysteine position WT, in h^-1; for k(Cdk2)/k(Cdk2_mut) rate enhancement: model thiol Cdk2[C177A, F80C, K278C]; for k(Cdk2)/k(GSH) rate enhancement: model thiol glutathione
T3 construct: poly-histidine; made in house; host or cells: E. coli
Summary of the method: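 Rate constants came from first-order exponential decay fits of normalized fluorescence against time, with thiol (5 μM) in degassed pH 8 phosphate buffer containing 2% v/v TCEP beads and reads after 1 h at room temperature.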

Cdk2[C177A, F80C, K278C] = biological target: T4, Cdk2[C177A, F80C, K278C] (Homo sapiens, UniProt P24941, C177A/F80C/K278C); test: Kinetic thiol consumption assay with mutant Cdk2 as model thiol; assay type: binding; design: unit not given here; conditions: 500 μM ligand, 5 μM thiol, phosphate buffer pH 8
T4 construct: poly-histidine; made in house; host or cells: E. coli
Protocol: A library of 120 acrylamides was screened against a) human cyclin-dependent kinase 2 (Cdk2, which contains one surface exposed cysteine residue—C177), prepared by cloning cDNA into the pRSETA bacterial expression vector to generate a poly-histidine tagged Cdk2 fusion that was purified from E. coli using standard techniques, and b) a model thiol (specific details are given below). The structures of these 120 acrylamides are set out in Table 1, above.
To wells containing 150 μL thiol (Cdk2 or model thiol) (5 μM) in degassed phosphate buffer (pH 8) was added immobilized TCEP beads (2% v/v).
After incubation of the fluorescence plates for 1 hour at room temperature, fluorescence measurements (excitation/emission of 380/470 nm) were taken on a PerkinElmer EnVision multilabel plate reader and processed with EnVision Workstation version 1.12.
Fluorescence measurements were normalized against a DMSO/thiol only control and plotted against time.
Rate constants were calculated using GraphPad software Prism version 6 by fitting a first order exponential decay to the data. The rate constant for each acrylamide with Cdk2 was divided by the rate constant for that fragment with the model thiol to provide the rate enhancement for each ligand candidate.
The model thiol used in Example 2 is a mutant form of human Cdk2 (C177A, F80C, K278C) which contains two engineered surface exposed cysteine residues. Mutations were introduced by site-directed mutagenesis and the resulting cDNA was cloned into the pRSETA bacterial expression vector to generate a poly-histidine tagged Cdk2 fusion that was purified from E. coli using standard techniques.

Cdk2(R122C) (C177A) = biological target: T5, Cdk2(R122C) (C177A) (Homo sapiens, UniProt P24941, C177A/R122C); test: Kinetic thiol consumption assay with Cdk2 mutant R122C; assay type: binding; design: key to Rate enhancement, Cdk2 R122C: rate constant with Cdk2 ÷ rate constant with model thiol (fold); conditions: additional mutation C177A; for Rate constant with Cdk2 R122C: Protein: Cdk2, cysteine position R122C, in h-1
T5 construct: poly-histidine; made in house; host or cells: E. coli
Summary of the method: as §1

Cdk2(C177A, F80C) = biological target: T6, Cdk2(C177A, F80C) (Homo sapiens, UniProt P24941, C177A/F80C); test: Kinetic thiol consumption assay with Cdk2 mutant F80C, incl. kobs versus concentration (Kd, k2); assay type: binding; design: key to Rate enhancement, Cdk2 F80C: Cdk2 rate constant divided by model-thiol rate constant; conditions: additional mutation C177A; for Rate constant with Cdk2 F80C: Protein: Cdk2, cysteine position F80C, in h^-1
T6 construct: poly-histidine; made in house; host or cells: E. coli
Summary of the method: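 His-tagged Cdk2(C177A/F80C) from E. coli or model thiol, 5 μM in degassed phosphate buffer pH 8 with TCEP beads, reacted with acrylamide ligands; fluorescence (ex/em 380/470 nm) normalized to DMSO control and fitted to first-order decay for kobs. Kd and k2 obtained from hyperbolic fit of kobs versus ligand concentration.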

Cdk2(S276C) (C177A) = biological target: T7, Cdk2(S276C) (C177A) (Homo sapiens, UniProt P24941, C177A/S276C); test: Kinetic thiol consumption assay with Cdk2 mutant S276C; assay type: binding; design: key to Rate enhancement, Cdk2 S276C: rate constant with Cdk2 ÷ rate constant with model thiol (fold); conditions: additional mutation C177A; for Rate constant with Cdk2 S276C: Protein: Cdk2, cysteine position S276C, in h^-1
T7 construct: poly-histidine; made in house; host or cells: E. coli
Summary of the method: as §1

Cdk2(H71C) (C177A) = biological target: T8, Cdk2(H71C) (C177A) (Homo sapiens, UniProt P24941, C177A/H71C); test: Kinetic thiol consumption assay with Cdk2 mutant H71C; assay type: binding; design: key to Rate enhancement, Cdk2 H71C: rate constant with Cdk2 ÷ rate constant with model thiol (fold); conditions: additional mutation C177A; for Rate constant with Cdk2 H71C: Protein: Cdk2, cysteine position H71C, in h^-1
T8 construct: poly-histidine; made in house; host or cells: E. coli
Summary of the method: as §1

Cdk2(S181C) (C177A) = biological target: T9, Cdk2(S181C) (C177A) (Homo sapiens, UniProt P24941, C177A/S181C); test: Kinetic thiol consumption assay with Cdk2 mutant S181C; assay type: binding; design: key to Rate enhancement, Cdk2 S181C: rate constant with Cdk2 ÷ rate constant with model thiol (fold); conditions: additional mutation C177A; for Rate constant with Cdk2 S181C: Protein: Cdk2, cysteine position S181C, in h^-1
T9 construct: poly-histidine; made in house; host or cells: E. coli
Summary of the method: as §1

Compound	Rate enhancement, Cdk2 T182C (Cdk2(T182C) (C177A))	Rate constant with Cdk2 T182C (Cdk2(T182C) (C177A))	Rate constant with glutathione (k(GSH)) [1]	Rate constant with Glutathione [1]	Rate enhancement, Cdk2 N272 (Cdk2(N272C) (C177A))	Rate constant with Cdk2 N272C (Cdk2(N272C) (C177A))	Rate constant with Cdk2 (k(Cdk2)) [2]	Rate enhancement, Cdk2 WT [2]	Rate constant with Cdk2 WT [2]	k(Cdk2)/k(Cdk2_mut) rate enhancement [2]	k(Cdk2)/k(GSH) rate enhancement [2]	Rate constant with Cdk2[C177A, F80C, K278C] (k(Cdk2_mut)) (Cdk2[C177A, F80C, K278C])	Rate enhancement, Cdk2 R122C (Cdk2(R122C) (C177A))	Rate enhancement, Cdk2 F80C (Cdk2(C177A, F80C))	Rate constant with Cdk2 F80C (Cdk2(C177A, F80C))	Rate enhancement, Cdk2 S276C (Cdk2(S276C) (C177A))	Rate constant with Cdk2 S276C (Cdk2(S276C) (C177A))	Rate enhancement, Cdk2 H71C (Cdk2(H71C) (C177A))	Rate enhancement, Cdk2 S181C (Cdk2(S181C) (C177A))	Rate constant with Cdk2 S181C (Cdk2(S181C) (C177A))	also measured
C=CC(=O)NC(Cc1ccccc1)C(O)CF (stereo not shown) [EL-1164]	0.1829	0.001408	0.00485	0.007698	0.09396	0.0007233	0.00239	0.4757	0.003662	3.262	0.4934	0.00073	0	0.2794	0.002151	2.9904E−12	2.302E−14	0	0.9819	0.007559	
C=CC(=O)N1CCCN2C(=O)CCC12c1ccc(OC)cc1 (stereo not shown) [EL-1168]	2.927	0.03904	0.01343	0.01334	0.6555	0.008745	0.00974	0.7298	0.009736	5.551	0.7249	0.00175	0.3022	0.3123	0.004166	0.6022	0.008034	0.8583	1.741	0.02323	Rate constant with Cdk2 R122C (Cdk2(R122C) (C177A)): 0.004032; Rate constant with Cdk2 H71C (Cdk2(H71C) (C177A)): 0.01145
C=CC(=O)N1CCn2cccc2C1c1ccccc1 (stereo not shown) [CA-187]	4.62	0.2035	0.04403	0.04405	0.7126	0.03139	0.02811	0.6381	0.02811	1.586	0.6384	0.01772	0.4465	0.3805	0.01676	1.852	0.08156	1.456	0.2036	0.00897	Rate constant with Cdk2 R122C (Cdk2(R122C) (C177A)): 0.01967; Rate constant with Cdk2 H71C (Cdk2(H71C) (C177A)): 0.06414
